Several values for one entry are separate records, joined by “and”; a condition that tells them apart may be missing. Identical values can stand only once.
Tested on: 186277-243-T-J2-PDC complex spheroid viability
Experiment: Anticancer human tumor 186277-243-T-J2-PDC patient-derived colon adenocarcinoma cell line growth inhibition
Details: for viability, T/C: stronger effect = lower value; for IC50: curve of compound
From the text: Multicellular complex tumor spheroid response to LSD1 Inhibitor Iadademstat in combination with a variety of drugs and investigational agents in selected tumor cell lines
The current study was undertaken to assess response to LSD1 inhibitors in combination with standard-of-care drugs and investigational agents in solid tumor complex spheroid models as well as in the K-562 leukemia. Complex spheroids include a stromal component modeled by human endothelial cells (HUVEC) and fibroblasts modeled by human mesenchymal stem cells (MSCs). The concentration ranges selected for each drug and investigational agent were based upon clinically achievable concentrations if the clinical Cmax of the agent was known.
Compounds. The drugs and investigational agents used in this study are listed on Table 1. All of the agents used, including staurosporine (NSC755774) and gemcitabine (NSC613327), were obtained from the Developmental Therapeutics Program, NCI. FDA-approved anticancer drugs are available from the NCI at http://dtp.nci.nih.gov/branches/dscb/oncology_drugset_explanation.html. Drugs and investigational agents were >95% pure by proton nuclear magnetic resonance (NMR) and liquid chromatography/mass spectrometry (LC/MS). Stock solutions were prepared at 400x in DMSO, stored at -70 degrees C, and diluted in fresh medium prior to their use. The final concentration of DMSO in cell culture wells never exceeded 0.25% (v/v). The FDA-approved anticancer drug set is available from the Developmental Therapeutics Program at https://dtp.cancer.gov/organization/dscb/obtaining/available_plates.htm. All drugs and investigational agents were tested over a range starting from a high concentration at or near the clinical Cmax and decreasing in half-log increments. If the clinical Cmax for an agent had not been determined, the highest concentration tested was 10 microM.
Cell Lines. The patient-derived cancer cell (PDC) lines: 292921-168-R-J2-PDC, K24384-001-R-PDC, and 521955-158-R2-J5-PDC pancreatic carcinomas, 556581-035-R-J1 ovarian carcinoma, 324938-238-R-J1-PDC, 855422-203-R-J1-PDC and 883617-216-R-J1-PDC urothelial bladder carcinomas, 743489-274-T-PDC renal cell carcinoma, 138582-R-J1 Merkel cell tumor, K60290-347-R-J1 and K57222-313-R-J1-PDC glioblastomas, 653999-131-R-J2-PDC, LG0703-F948-PDC, and 349418-098-R-PDC non-small cell lung carcinomas, 885512-296-R-J2-PDC, 171881-019-R-J1-PDC breast carcinomas and 186277-243-T-J2-PDC and 233499-124-R-J2-PDC colon carcinomas were obtained from the NCI Patient-Derived Models Repository (PDMR, https://pdmr.cancer.gov). The established cell lines NCI/ADR-RES (RRID:CVCL_14520 and OVCAR-5 (RRID:CVCL_1628) ovarian carcinomas, 786-O (RRID:CVCL_1051) and A498 (RRID:CVCL_A498) renal cell carcinoma, NCI-H211 (ATCC, cat. CRL-5824; RRID:CVCL_1529), NCI-H196 (ATCC, cat. CRL-5823, RRID:CVCL_1509), SW 1271 (ATCC, cat. CRL-2177, RRID:CVCL_1716) and NCI-H1876 (ATCC, cat. CRL-5902, RRID:CVCL_1503) small cell lung carcinomas, MDA-MB-231 (RRID:CVCL_0062) and MDA-MB-468 (RRID:CVCL_0419)breast carcinomas (10-12). Pooled donor human umbilical vein endothelial cells (HUVEC, Lonza, cat. CC-2519) and human mesenchymal stem cells (hMSC, Lonza, cat. PT-2501) were purchased from Lonza (Walkersville, MD).
Cell Culture. All cells were maintained in an incubator at 37 degrees C and 5% CO2 with 95% humidity. The PDC lines were cultured according to standard operating procedures established by the NCI PDMR (https://pdmr.cancer.gov). Briefly all PDCs were thawed and cultured in Matrigel-coated flasks prepared with a working solution of 1X Ham's F-12 nutrient mix, without supplementation (Invitrogen, Waltham, MA, cat. 11765054), 100 U/mL penicillin-streptomycin (Invitrogen, cat. 15140122), and 2.5% Matrigel (Corning Inc., Corning, NY, cat. 354248) for the first three passages. […]
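Note: 7 day exposure to compounds.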
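Throughout, for viability, T/C: 100% = DMSO vehicle control viability.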

| Structure (SMILES) | IC50 | viability, T/C (compound 0.000316 µM) | viability, T/C (compound 0.01 µM) | viability, T/C (compound 0.0316 µM) | viability, T/C (compound 0.1 µM) | viability, T/C (compound 0.001 µM) | viability, T/C (compound 0.00316 µM) | viability, T/C (compound 0.316 µM) | viability, T/C (compound 1 µM) | viability, T/C (compound 0.000949 µM) | viability, T/C (compound 0.003 µM) | viability, T/C (compound 0.00949 µM) | viability, T/C (compound 0.03 µM) | viability, T/C (compound 0.0949 µM) | viability, T/C (compound 0.3 µM) | viability, T/C (compound 0.949 µM) | viability, T/C (compound 3 µM) |
| --- | --- | --- | --- | --- | --- | --- | --- | --- | --- | --- | --- | --- | --- | --- | --- | --- | --- |
| CC(C)CC(NC(=O)C(Cc1ccccc1)NC(=O)c1cnccn1)B(O)O (centres undefined) | 2.74 nM and 0.548 nM | 96.1% and 94% | 3.46% and 0.11% | 2.69% and 0.11% | 3.82% and 0.17% | – | – | – | – | – | – | – | – | – | – | – | – |
| CC(C)CC(NC(=O)CNC(=O)c1cc(Cl)ccc1Cl)B1OC(=O)CC(CC(=O)O)(C(=O)O)O1 (centres undefined) | 15.3 nM and 10.2 nM | 99.8% and 95.4% | 70.7% and 51.2% | 14.8% and 2.68% | 6.24% and 0.35% | 99.4% and 103% | 101% and 94.2% | – | – | – | – | – | – | – | – | – | – |
| CC1COCCN1c1cc(-c2ccnn2C)c2ccnc(-c3ccn[nH]3)c2n1 (centres undefined) | 6.15 nM and < 3.16 nM | – | 30.1% and 14% | 11.1% and 8.92% | 9.14% and 7.83% | – | 77.4% and 18.2% | 10.1% and 8.98% | 11.4% and 7.8% | – | – | – | – | – | – | – | – |
| CCc1c2c(nc3ccc(O)cc13)-c1cc3c(c(=O)n1C2)COC(=O)[C@]3(O)CC | < 0.949 nM | – | – | – | – | – | – | – | – | 48.5% and 39.8% | 35.5% and 27% | 31.5% and 23.3% | 22% and 4.12% | 2.19% and 0.43% | 0.75% and 0.28% | – | – |
| COc1cc(C2c3cc4c(cc3C(OC3OC5COC(C)OC5C(O)C3O)C3COC(=O)C23)OCO4)cc(OC)c1O (centres undefined) | 1700 nM and 618 nM | – | – | – | – | – | – | – | – | – | – | 101% and 112% | 100% and 124% | 92.8% and 98.9% | 75.2% and 70.9% | 61.2% and 39% | 40.3% and 17.3% |
| COc1cc(Nc2ncc3c(n2)-c2ccc(Cl)cc2C(c2c(F)cccc2OC)=NC3)ccc1C(=O)O | – | – | 57.4% and 106% | 30.4% and 99.2% | 8.56% and 98.8% | – | 101% and 116% | – | – | – | – | – | – | – | – | – | – |
| Cn1ncnc1C1c2n[nH]c(=O)c3cc(F)cc(c23)NC1c1ccc(F)cc1 (centres undefined) | > 100 nM | 101% and 106% | 97.5% and 93.7% | 94.1% and 101% | 97.3% and 108% | 98.5% and 98% | 97.8% and 95.2% | – | – | – | – | – | – | – | – | – | – |
| Nc1ccccc1NC(=O)c1ccc(CNC(=O)OCc2cccnc2)cc1 | 1310 nM and 628 nM | – | – | – | – | – | – | – | – | – | – | 99.8% and 104% | 99.2% and 98.5% | 102% and 106% | 88.2% and 103% | 64.4% and 20.6% | 14.5% and 1.27% |
| O=C(C=Cc1cccc(S(=O)(=O)Nc2ccccc2)c1)NO | 223 nM and 234 nM | – | – | – | – | – | – | – | – | – | – | 102% and 94.1% | 100% and 96.4% | 84.3% and 80.5% | 36.6% and 22.1% | 15.3% and 3.68% | – |
| O=C(C=Cn1cnc(-c2cc(C(F)(F)F)cc(C(F)(F)F)c2)n1)NNc1cnccn1 | 19.4 nM and 56.4 nM | – | 85.8% and 106% | 23.5% and 84.3% | 9.4% and 15.8% | – | 98.1% and 93.5% | 5.65% and 4.97% | 0.55% and 2.09% | – | – | – | – | – | – | – | – |

Now from value to compound, other results behind:

| IC50 | Structure (SMILES) | viability, T/C (compound 0.000316 µM) | viability, T/C (compound 0.01 µM) | viability, T/C (compound 0.0316 µM) | viability, T/C (compound 0.1 µM) | viability, T/C (compound 0.001 µM) | viability, T/C (compound 0.00316 µM) | viability, T/C (compound 0.316 µM) | viability, T/C (compound 1 µM) | viability, T/C (compound 0.000949 µM) | viability, T/C (compound 0.003 µM) | viability, T/C (compound 0.00949 µM) | viability, T/C (compound 0.03 µM) | viability, T/C (compound 0.0949 µM) | viability, T/C (compound 0.3 µM) | viability, T/C (compound 0.949 µM) | viability, T/C (compound 3 µM) |
| --- | --- | --- | --- | --- | --- | --- | --- | --- | --- | --- | --- | --- | --- | --- | --- | --- | --- |
| 75.9 nM and 61.3 nM | CC[C@@]1(O)C(=O)OCc2c1cc1n(c2=O)Cc2cc3c(CN(C)C)c(O)ccc3nc2-1 | 113% and 102% | 93.4% and 118% | 74.8% and 75.9% | 41.5% and 30.9% | 101% and 98% | 95.7% and 113% | – | – | – | – | – | – | – | – | – | – |
| 180 nM and 162 nM | NS(=O)(=O)OCC1CC(n2ccc3c(NC4CCc5ccccc54)ncnc32)CC1O (centres undefined) | – | – | – | – | – | – | – | – | – | – | 93.9% and 100% | 94.9% and 85.9% | 62.6% and 66.7% | 37.2% and 33% | 20.5% and 9.16% | 7.98% and 4.41% |
| < 0.949 nM and 2.23 nM | Nc1ccn(C2OC(CO)C(O)C2(F)F)c(=O)n1 (centres undefined) | – | – | – | – | – | – | – | – | 17.2% and 101% | 16.7% and 32.3% | 16.5% and 13% | 16.5% and 11.9% | 17.1% and 12.7% | 14.7% and 14% | – | – |
| > 1000 nM | Nc1ncn(C2CC(O)C(CO)O2)c(=O)n1 (centres undefined) | – | 102% and 99.4% | 97.3% and 94.3% | 113% and 112% | – | 93.4% and 108% | 113% and 133% | 104% and 141% | – | – | – | – | – | – | – | – |
| 69.6 nM and 104 nM | Nc1ncn(C2CC(O)C(CO)S2)c(=O)n1 (centres undefined) | – | – | – | – | – | – | – | – | 109% and 96.1% | 118% and 104% | 99.9% and 109% | 83.4% and 99.1% | 37.5% and 53.4% | 11.7% and 12% | – | – |
